Measured values as given in ChEMBL document CHEMBL1201862, “PubChem BioAssay data set” (2004).
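Assay format: 96-well plates, 48-hour exposure. Abbreviation: GI50, concentration required for 50% inhibition of growth.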 Activity calls are given as the source filed them. Rule as the data show it: active = GI50 up to about 1.1 µM and inactive = higher.

Columns and labels:
Experiment in all cases: inhibition of tumour cell growth, NCI panel, 48 h
M14 = test system: M14
SK-MEL-28 = test system: SK-MEL-28
DU-145 = test system: DU-145
SK-OV-3 = test system: SK-OV-3
Hs-578T = test system: Hs-578T
OVCAR-3 = test system: OVCAR-3
SNB-19 = test system: SNB-19
NCI-H522 = test system: NCI-H522
SF-295 = test system: SF-295
SK-MEL-2 = test system: SK-MEL-2
HCT-15 = test system: HCT-15
HT-29 = test system: HT-29
LOX IMVI = test system: LOX IMVI
SF-539 = test system: SF-539
HL-60 = test system: HL-60
BT-549 = test system: BT-549
UO-31 = test system: UO-31
SN12C = test system: SN12C
SR = test system: SR
MDA-MB-435 = test system: MDA-MB-435
OVCAR-4 = test system: OVCAR-4
OVCAR-5 = test system: OVCAR-5
IGROV-1 = test system: IGROV-1
UACC-257 = test system: UACC-257
K562 = test system: K562
SNB-75 = test system: SNB-75
NCI-H23 = test system: NCI-H23
PC-3 = test system: PC-3
COLO 205 = test system: COLO 205
A549 = test system: A549
EKVX = test system: EKVX
ACHN = test system: ACHN
HOP-62 = test system: HOP-62
HCT-116 = test system: HCT-116
NCI-H226 = test system: NCI-H226
OVCAR-8 = test system: OVCAR-8
MDA-MB-231 = test system: MDA-MB-231
SK-MEL-5 = test system: SK-MEL-5
U-251 = test system: U-251
SF-268 = test system: SF-268
RPMI-8226 = test system: RPMI-8226
HOP-92 = test system: HOP-92
HCC 2998 = test system: HCC 2998
786-0 = test system: 786-0
Malme-3M = test system: Malme-3M
MDA-N = test system: MDA-N
MCF7 = test system: MCF7
MOLT-4 = test system: MOLT-4
CAKI-1 = test system: CAKI-1
UACC-62 = test system: UACC-62
CCRF-CEM = test system: CCRF-CEM
SW-620 = test system: SW-620
KM12 = test system: KM12
NCI/ADR-RES = test system: NCI/ADR-RES
A498 = test system: A498
T47D = test system: T47D
NCI-H460 = test system: NCI-H460
TK-10 = test system: TK-10
RXF 393 = test system: RXF 393

With CC1(C)CCCCCCC2OC2CCCCCC(C)(C)C1=O (stereo not drawn) the GI50 (M14) was 32.8 µM (inactive), the GI50 (SK-MEL-28) was 65.2 µM (inactive) and the GI50 (DU-145) was > 71.1 µM (inactive). The GI50 (SK-OV-3) was 69.8 µM (inactive), the GI50 (Hs-578T) was 45.1 µM (inactive) and the GI50 (OVCAR-3) was 34.1 µM (inactive). The GI50 (SNB-19) was > 89.3 µM (inactive), the GI50 (NCI-H522) was 22.1 µM (inactive) and the GI50 (SF-295) was 31.2 µM (inactive). The GI50 (SK-MEL-2) was 31.8 µM (inactive), the GI50 (HCT-15) was greater than 89.5 µM and the GI50 (HT-29) was 25.9 µM (inactive). For the same molecule, the GI50 (LOX IMVI) was > 67.8 µM (inactive), the GI50 (SF-539) was > 94.8 µM (inactive) and the GI50 (HL-60) was 22.4 µM (inactive). For the same molecule, the GI50 (BT-549) was 27.5 µM (inactive), the GI50 (UO-31) was 25.5 µM (inactive) and the GI50 (SN12C) was > 44.8 µM (inactive). For the same molecule, the GI50 (SR) was 27.5 µM (inactive), the GI50 (MDA-MB-435) was 35.5 µM (inactive) and the GI50 (OVCAR-4) was 46.2 µM (inactive). The GI50 (OVCAR-5) was > 62.1 µM (inactive), the GI50 (IGROV-1) was 47.8 µM (inactive) and the GI50 (UACC-257) was 30.7 µM (inactive). For the same molecule, the GI50 (K562) was 30 µM (inactive), the GI50 (SNB-75) was 28 µM (inactive) and the GI50 (NCI-H23) was 57.7 µM (inactive). The GI50 (PC-3) was 35.1 µM (inactive), the GI50 (COLO 205) was 14.4 µM (inactive) and the GI50 (A549) was 39.3 µM (inactive). The GI50 (EKVX) was 60.1 µM (inactive), the GI50 (ACHN) was 30.8 µM (inactive) and the GI50 (HOP-62) was 49.8 µM (inactive). The GI50 (HCT-116) was 35.8 µM (inactive), the GI50 (NCI-H226) was > 56.4 µM (inactive) and the GI50 (OVCAR-8) was 44.4 µM (inactive). The GI50 (MDA-MB-231) was 29.9 µM (inactive), the GI50 (SK-MEL-5) was 22.3 µM (inactive) and the GI50 (U-251) was 24.3 µM (inactive). For the same molecule, the GI50 (SF-268) was 50.2 µM (inactive), the GI50 (RPMI-8226) was 32.5 µM (inactive) and the GI50 (HOP-92) was 27 µM (inactive). The GI50 (HCC 2998) was 40.6 µM (inactive), the GI50 (786-0) was 39.3 µM (inactive) and the GI50 (Malme-3M) was > 53.8 µM (inactive). The GI50 (MDA-N) was 35.8 µM (inactive), the GI50 (MCF7) was 26.4 µM (inactive) and the GI50 (MOLT-4) was 24 µM (inactive). For the same molecule, the GI50 (CAKI-1) was 20.5 µM (inactive), the GI50 (UACC-62) was 19 µM (inactive) and the GI50 (CCRF-CEM) was 28.2 µM (inactive). For the same molecule, the GI50 (SW-620) was 52.4 µM (inactive), the GI50 (KM12) was 27.8 µM (inactive) and the GI50 (NCI/ADR-RES) was 25.9 µM (inactive). The GI50 (A498) was > 84.9 µM (inactive), the GI50 (T47D) was 29.9 µM (inactive) and the GI50 (NCI-H460) was 36.1 µM (inactive). The GI50 (TK-10) was > 100 µM (inactive) and the GI50 (RXF 393) was 20.1 µM (inactive).

In the case of CCCCCCc1cc2cc(-c3csc(CC#N)n3)c(=O)oc2cc1O, the GI50 (M14) is reported as > 100 µM (inactive), the GI50 (SK-MEL-28) is reported as > 100 µM (inactive) and the GI50 (DU-145) is reported as > 100 µM (inactive). For the same molecule, the GI50 (SK-OV-3) was 13.3 µM (inactive), the GI50 (Hs-578T) was 12.4 µM (inactive) and the GI50 (OVCAR-3) was 11.1 µM (inactive). The GI50 (SNB-19) was 14.4 µM (inactive), the GI50 (NCI-H522) was 10.4 µM (inactive) and the GI50 (SF-295) was 36.6 µM (inactive). The GI50 (SK-MEL-2) was > 100 µM (inactive), the GI50 (HCT-15) was greater than 100 µM and the GI50 (HT-29) was > 100 µM (inactive). The GI50 (LOX IMVI) was > 100 µM (inactive), the GI50 (SF-539) was 5.71 µM (inactive) and the GI50 (HL-60) was > 44.3 µM (inactive). The GI50 (BT-549) was 6.17 µM (inactive), the GI50 (UO-31) was 27 µM (inactive) and the GI50 (SN12C) was 99.1 µM (inactive). The GI50 (SR) was > 56.6 µM (inactive), the GI50 (MDA-MB-435) was > 100 µM (inactive) and the GI50 (OVCAR-4) was 3.45 µM (inactive). The GI50 (OVCAR-5) was > 100 µM (inactive), the GI50 (IGROV-1) was 29.8 µM (inactive) and the GI50 (UACC-257) was > 100 µM (inactive). The GI50 (K562) was > 69.2 µM (inactive), the GI50 (SNB-75) was 32.1 µM (inactive) and the GI50 (NCI-H23) was 22.1 µM (inactive). For the same molecule, the GI50 (PC-3) was > 100 µM (inactive), the GI50 (COLO 205) was > 100 µM (inactive) and the GI50 (A549) was > 100 µM (inactive). For the same molecule, the GI50 (EKVX) was > 100 µM (inactive), the GI50 (ACHN) was 21.9 µM (inactive) and the GI50 (HOP-62) was 34.9 µM (inactive). For the same molecule, the GI50 (HCT-116) was 5.89 µM (inactive), the GI50 (NCI-H226) was 22.9 µM (inactive) and the GI50 (OVCAR-8) was 13 µM (inactive). For the same molecule, the GI50 (MDA-MB-231) was 11.7 µM (inactive), the GI50 (SK-MEL-5) was 32.7 µM (inactive) and the GI50 (U-251) was 6.4 µM (inactive). The GI50 (SF-268) was 18.7 µM (inactive), the GI50 (RPMI-8226) was 32.4 µM (inactive) and the GI50 (HOP-92) was 7.48 µM (inactive). For the same molecule, the GI50 (HCC 2998) was > 100 µM (inactive), the GI50 (786-0) was 7.62 µM (inactive) and the GI50 (Malme-3M) was > 100 µM (inactive). For the same molecule, the GI50 (MDA-N) was > 100 µM (inactive), the GI50 (MCF7) was > 49.4 µM (inactive) and the GI50 (MOLT-4) was 43.1 µM (inactive). For the same molecule, the GI50 (CAKI-1) was > 44.6 µM (inactive), the GI50 (UACC-62) was 14.4 µM (inactive) and the GI50 (CCRF-CEM) was > 49.2 µM (inactive). For the same molecule, the GI50 (SW-620) was 26.2 µM (inactive), the GI50 (KM12) was 22.5 µM (inactive) and the GI50 (NCI/ADR-RES) was 6.35 µM (inactive). The GI50 (A498) was 56 µM (inactive), the GI50 (T47D) was > 100 µM (inactive) and the GI50 (NCI-H460) was 8.55 µM (inactive). The GI50 (TK-10) was > 100 µM (inactive) and the GI50 (RXF 393) was > 33.2 µM (inactive).
